Reference: patent publication US7575882B2, “Compositions and methods for identifying modulators of TRPV2” (Janssen Pharmaceutica N. V., priority 2005, dated 2009)

Key:
[1] = target: T1, co-expressed TRPV2 chimeras RRH and HRR (Rattus norvegicus, UniProt Q9WUD2); test: Calcium mobilization in HEK293 cells co-expressing TRPV2 chimeras RRH and HRR; format: cell-based, rat/human; settings: co-expression in HEK cells
T1 construct: expressed in transfected cells; host or cells: HEK293, transient co-expression, pCI-neo
T1 sequence (Q9WUD2 with tags, fused parts or gaps H651S/D654T/N655D/DEL680-680/H683Q/E685A/R687V/L688M/K690T/R694K/G695P/T698S/A714S/K717Q/S723C): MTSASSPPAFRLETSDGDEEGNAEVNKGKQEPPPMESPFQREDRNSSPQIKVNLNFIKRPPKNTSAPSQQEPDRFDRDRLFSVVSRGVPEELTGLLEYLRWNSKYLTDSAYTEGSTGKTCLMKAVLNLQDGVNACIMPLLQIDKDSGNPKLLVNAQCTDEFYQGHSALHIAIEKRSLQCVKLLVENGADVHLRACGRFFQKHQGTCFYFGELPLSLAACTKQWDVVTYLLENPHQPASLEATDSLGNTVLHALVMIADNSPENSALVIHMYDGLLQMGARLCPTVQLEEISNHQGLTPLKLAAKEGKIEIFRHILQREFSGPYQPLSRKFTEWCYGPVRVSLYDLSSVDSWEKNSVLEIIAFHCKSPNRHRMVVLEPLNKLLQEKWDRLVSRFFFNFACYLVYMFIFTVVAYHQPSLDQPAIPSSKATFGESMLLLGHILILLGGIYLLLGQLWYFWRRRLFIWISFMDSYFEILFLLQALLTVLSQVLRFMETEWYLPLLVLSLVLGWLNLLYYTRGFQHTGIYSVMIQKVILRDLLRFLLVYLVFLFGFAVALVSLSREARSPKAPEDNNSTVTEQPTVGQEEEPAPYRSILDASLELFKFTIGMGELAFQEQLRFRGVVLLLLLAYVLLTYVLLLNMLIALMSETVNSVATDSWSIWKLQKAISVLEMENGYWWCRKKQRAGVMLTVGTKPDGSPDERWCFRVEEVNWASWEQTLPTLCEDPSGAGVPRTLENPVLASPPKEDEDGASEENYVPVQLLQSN
T1 sequence (Q9WUD2 with tags, fused parts or gaps P38Q/R41G/N45K/S46F/S47A/K51R/DEL56-59/P60Y/P61R/N63G/S65G/DEL67-67/Q70P/E71D/D73N/S82N/V83A/E91D/T93A/L96P/R100S/W101K/N102T/A110E/Q129K/M137L/K144R/K150Q/L151P/E160D/F161Y/Q163R/D189N/L192A/H202G/T227S/E240Q/L245Q/A257S/P261A/S264I/I268T/H269S/M277A/E289D/S291R/H293L/G295D/DEL322-322/Y323L/Q324S/P325H/S346A/W351C/K353E/N368H/E384A/R388L/V390I/S391P/R392K): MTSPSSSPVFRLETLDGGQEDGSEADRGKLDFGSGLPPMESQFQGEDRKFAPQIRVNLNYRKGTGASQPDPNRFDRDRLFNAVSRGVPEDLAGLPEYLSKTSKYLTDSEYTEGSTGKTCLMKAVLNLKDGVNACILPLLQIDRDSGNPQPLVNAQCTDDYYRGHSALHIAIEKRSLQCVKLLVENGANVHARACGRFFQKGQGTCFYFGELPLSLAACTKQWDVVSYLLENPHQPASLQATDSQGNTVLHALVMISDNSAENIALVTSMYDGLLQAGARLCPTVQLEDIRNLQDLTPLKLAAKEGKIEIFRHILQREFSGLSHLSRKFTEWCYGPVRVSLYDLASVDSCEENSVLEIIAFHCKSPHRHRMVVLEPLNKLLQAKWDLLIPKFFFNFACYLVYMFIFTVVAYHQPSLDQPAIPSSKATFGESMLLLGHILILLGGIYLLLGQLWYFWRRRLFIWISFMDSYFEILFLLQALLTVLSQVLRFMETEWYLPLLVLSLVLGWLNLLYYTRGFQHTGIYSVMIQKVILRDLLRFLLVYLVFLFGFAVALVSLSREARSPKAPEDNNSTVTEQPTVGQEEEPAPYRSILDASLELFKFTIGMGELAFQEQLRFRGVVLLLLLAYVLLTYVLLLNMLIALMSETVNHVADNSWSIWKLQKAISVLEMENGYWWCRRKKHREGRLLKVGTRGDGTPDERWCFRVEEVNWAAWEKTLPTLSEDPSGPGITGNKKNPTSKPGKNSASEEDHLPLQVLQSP
Method: (§1) The deletion mutant constructs were then transfected into HEK293 cells using Fugene 6 reagent (Roche) as per the manufacturer's instructions. At 24 hours post-transfection, the cells were harvested and replated in fresh DMEM medium supplemented with 10% fetal bovine serum, 100 units/ml penicillin, and 100 μg/ml streptomycin. The cells were distributed onto poly-D-Lysine coated 96-or 384-well plates at a density of approximately 40,000 and 10,000 cells per well, respectively. At approximately 48 hours post-transfection, the medium was removed from the assay plate and replaced with Calcium 3 Dye Buffer (Molecular Devices) using the protocol available from the manufacturer. Calcium mobilization was triggered using Δ^9-THC or 2-APB or elevated temperature buffer and measured using either FLIPR or FLEX STATION instruments.
(§2) Based on the predicted topology and primary sequence features of TRPV2, TRPV2 are divided into 3 major domains: 1) the amino-terminal intracellular domain; 2) the transmembrane domain; and 3) the carboxyl-terminal intracellular domain. For a chimera, each domain can be of rat (R) or human (H) origin. Three rat and human TRPV2 chimera were constructed and tested herein. RRH (SEQ ID NO:15) was a chimera comprising rat 1-392 aa, rat 393-646 aa, and human 647-764 aa. RHR (SEQ ID NO:16) was a chimera comprising rat 1-392, human 391-646, and rat 647-761. […]

[2] = target: T2, rat and human TRPV2 chimera RRH (Rattus norvegicus, UniProt Q9WUD2, A714S/D654T/DEL680-680/E685A/G695P/H651S/H683Q/K690T/K717Q/L688M/N655D/R687V/R694K/S723C/T698S); test: Calcium mobilization in HEK293 cells expressing TRPV2 chimera RRH; format: cell-based; settings: expressed separately in HEK cells
T2 construct: expressed in transfected cells; host or cells: HEK293, transient, pCI-neo
T2 sequence (Q9WUD2 with tags, fused parts or gaps H651S/D654T/N655D/DEL680-680/H683Q/E685A/R687V/L688M/K690T/R694K/G695P/T698S/A714S/K717Q/S723C): T1 sequence (Q9WUD2 with tags, fused parts or gaps H651S/D654T/N655D/DEL680-680/H683Q/E685A/R687V/L688M/K690T/R694K/G695P/T698S/A714S/K717Q/S723C)
Method: as §1, §2

Delta-9-tetrahydrocannabinol [Δ^9-THC]
response of cells co-expressing both chimeras to the compound [1]: fully responsive
response of chimera RRH to the compound [2]: poorly
